Measurements reported in US20260216294A1, “BETA 2-ADRENERGIC RECEPTOR AGONISTS FOR TREATMENT OR PREVENTION OF MUSCLE WASTING” (ATROGI AB, priority 2023, published 2026).

Key:
L6-myotubes [1] = test: Glucose uptake in differentiated L6-myotubes (Biological Example 2); format: cell-based; conditions: for Emax at 10 µM: read-out: Biological example 2 (GU)
Method in brief: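 Uptake was quantified as radioactivity in 0.2 M NaOH lysates after a 10 min pulse of 50 nM ^3H-2-deoxyglucose. The pulse followed two agonist exposures at 1×10^−5 M final (isoprenaline or test compound): 1 h 40 min, then 20 min in glucose-free medium after washing. L6 myotubes had been starved overnight in medium with 0.5% fatty-acid-free BSA.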

L6-myotubes [2] = test: Measurement of intracellular cAMP levels in differentiated L6-myotubes (Biological Example 3); format: cell-based; conditions: for Emax at 10 µM: 0.25 h
Method in brief: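 Intracellular cAMP quantified by AlphaScreen after ethanol extraction and lysis of L6 myotubes. Cells were serum-starved overnight, then exposed for 15 min to compound (final 1×10^−5 M) or isoprenaline in IBMX-containing (1 mM) HBSS buffer, pH 7.4.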

[3] = glucose uptake, compound at 10 μM relative to isoproterenol at 10 μM
[4] = intracellular cAMP, compound at 10 μM relative to isoproterenol at 10 μM
[5] = glucose uptake in differentiated L6-myotubes, compound at 10 μM, activity relative to isoproterenol at 10 μM
[6] = intracellular cAMP in differentiated L6-myotubes, compound at 10 μM, activity relative to isoproterenol at 10 μM

In the case of `CCC[C@H](C)NC[C@H](O)c1ccc(F)cc1` [Compound 53, (R)-2-[(S)-1-methylbutylamino]-1-(p-fluorophenyl)-1-ethanol], the Emax at 10 µM (L6-myotubes [1]; [3]) is reported as 50 to 75% and the Emax at 10 µM (L6-myotubes [2]; [4]) is reported as < 25%.

`CC(C)(C[C@H]1CC[C@@H](N)CC1)NC[C@H](O)c1cccc(C#N)n1` [Compound 418, 6-[(S)-2-{1,1-dimethyl-2-[(1s,4R)-4-aminocyclohexyl]ethylamino}-1-hydroxyethyl]-2-pyridinecarbonitrile] was tested, and the Emax at 10 µM (L6-myotubes [1]; [5]) was 50 to 75% and the Emax at 10 µM (L6-myotubes [2]; [6]) was < 25%.

`COCC12CCC([C@H](O)c3cccc(F)c3)(CC1)N2` [Compound 330, (R)-(m-fluorophenyl){4-(methoxymethyl)-7-azabicyclo[[2.2.1]]hept-1-yl}methanol] was tested, and the Emax at 10 µM (L6-myotubes [1]; [5]) was > 75% and the Emax at 10 µM (L6-myotubes [2]; [6]) was < 25%.

`O[C@@H](c1cccc(F)c1)C12CCC(COCc3ccc(OC(F)(F)F)cc3)(CC1)N2` [Compound 487] was tested, and the Emax at 10 µM (L6-myotubes [1]; [5]) was < 25% and the Emax at 10 µM (L6-myotubes [2]; [6]) was < 25%.

For `CCCC(C)NCC(O)c1ccc(Cl)c(O)c1` (stereo not shown) [Compound 35, 1-(4-chloro-3-hydroxyphenyl)-2-(1-methylbutylamino)-1-ethanol], the Emax at 10 µM (L6-myotubes [1]; [3]) was > 75% and the Emax at 10 µM (L6-myotubes [2]; [4]) was < 25%.

In the case of `CO[C@H]1CC[C@H](CCC(C)(C)NC[C@H](O)c2cccc(F)c2)CC1` [Compound 265, (R)-2-{1,1-dimethyl-3-[(1r,4S)-4-methoxycyclohexyl]propylamino}-1-(m-fluorophenyl)-1-ethanol], the Emax at 10 µM (L6-myotubes [1]; [5]) is reported as 50 to 75% and the Emax at 10 µM (L6-myotubes [2]; [6]) is reported as < 25%.

In the case of `CC(C)(C[C@H]1CC[C@@H](NC(=O)OC(C)(C)C)CC1)NC[C@H](O)c1cncc(F)c1` [Compound 469, (1S,4s)-4-{2-[(R)-2-(5-fluoro-3-pyridyl)-2-hydroxyethylamino]-2-methylpropyl}cyclohexy-2-methyl-2-propanecarbamate], the “Biological example 2 (GU)” value (L6-myotubes [1]; [5]) is reported as “+++ (If a compound at 10 μM shows activity of more than 75% of that of isoproterenol at 10 μM, the activity is denoted with +++)” and the “Biological example 3 (CAMP)” value (L6-myotubes [2]; [6]) is reported as “− (if it less than 25% it is denoted with −)”.

`CCCCCCNCC(O)c1ccc(O)cc1` (stereo not shown) [Compound 17, 2-(hexylamino)-1-(p-hydroxyphenyl)-1-ethanol] was tested, and the Emax at 10 µM (L6-myotubes [1]; [3]) was 25 to 50% and the Emax at 10 µM (L6-myotubes [2]; [4]) was < 25%.

For `CCCCNC[C@H](O)c1ccc(F)cc1` [Compound 46, (R)-2-(butylamino)-1-(p-fluorophenyl)-1-ethanol], the Emax at 10 µM (L6-myotubes [1]; [3]) was 50 to 75% and the Emax at 10 µM (L6-myotubes [2]; [4]) was < 25%.

With `CO[C@H]1CC[C@H](C[C@H]2CC[C@H]([C@@H](O)c3cncc(F)c3)N2)CC1` [Compound 340, (S)-[(2R,5R)-5-{[(1r,4R)-4-methoxycyclohexyl]methyl}-2-pyrrolidinyl](5-fluoro-3-pyridyl)methanol] the Emax at 10 µM (L6-myotubes [1]; [5]) was 25 to 50% and the Emax at 10 µM (L6-myotubes [2]; [6]) was < 25%.

For `CCC[C@@H]1CCC[C@H]([C@H](O)c2cccc(O)c2)N1` [Compound 45], the Emax at 10 µM (L6-myotubes [1]; [3]) was > 75% and the Emax at 10 µM (L6-myotubes [2]; [4]) was < 25%.

With `CC(=O)N[C@H]1CC[C@@H](CC(C)(C)NC[C@H](O)c2cccc(C(F)(F)F)n2)CC1` [Compound 462] the Emax at 10 µM (L6-myotubes [1]; [5]) was 25 to 50% and the Emax at 10 µM (L6-myotubes [2]; [6]) was < 25%.

For `O[C@@H](CNC[C@H]1CC[C@H](OCc2ccccc2)CC1)c1cccc(F)c1` [Compound 271, (R)-1-(m-fluorophenyl)-2-({[(1r,4R)-4-(benzyloxy)cyclohexyl]methyl}amino)-1-ethanol], the Emax at 10 µM (L6-myotubes [1]; [5]) was 25 to 50% and the Emax at 10 µM (L6-myotubes [2]; [6]) was < 25%.

In the case of `CCC[C@H]1CCC[C@H]([C@@H](O)c2ccc(F)c(F)c2)N1` [Compound 65], the Emax at 10 µM (L6-myotubes [1]; [3]) is reported as 25 to 50% and the Emax at 10 µM (L6-myotubes [2]; [4]) is reported as < 25%.

For `CC(C)(NC[C@H](O)c1cncc(F)c1)[C@H]1CC[C@@H](OCc2ccccc2)CC1` [Compound 282, (R)-1-(5-fluoro-3-pyridyl)-2-{1-methyl-1-[(1s,4S)-4-(benzyloxy)cyclohexyl]ethylamino}-1-ethanol], the Emax at 10 µM (L6-myotubes [1]; [5]) was 50 to 75% and the Emax at 10 µM (L6-myotubes [2]; [6]) was < 25%.

In the case of `CC(C)(C[C@H]1CC[C@H](NC(=O)C2CCC2)CC1)NC[C@H](O)c1cccc(F)c1` [Compound 431], the Emax at 10 µM (L6-myotubes [1]; [5]) is reported as > 75% and the Emax at 10 µM (L6-myotubes [2]; [6]) is reported as 50 to 75%.

`CCC[C@@H]1CC[C@H]([C@H](O)c2ccccc2Cl)N1` [Compound 148, (R)-[(2R,5R)-5-propyl-2-pyrrolidinyl](o-chlorophenyl)methanol] was tested, and the Emax at 10 µM (L6-myotubes [1]; [3]) was > 75% and the Emax at 10 µM (L6-myotubes [2]; [4]) was < 25%.

With `CN(C)C(=O)N[C@H]1CC[C@H](CC(C)(C)NC[C@H](O)c2cccc(F)c2)CC1` [Compound 430, (R)-2-{1,1-dimethyl-2-[(1r,4R)-4-(3,3-dimethylureido)cyclohexyl]ethylamino}-1-(m-fluorophenyl)-1-ethanol] the Emax at 10 µM (L6-myotubes [1]; [5]) was > 75% and the Emax at 10 µM (L6-myotubes [2]; [6]) was 50 to 75%.

In the case of `CS(=O)(=O)N(Cc1ccccc1)[C@H]1CC[C@@H](C[C@@H]2CC[C@H]([C@@H](O)c3cccc(F)c3)N2)CC1` [Compound 509, (S)-[(2R,5S)-5-({(1s,4R)-4-[(benzyl)-N-mesylamino]cyclohexyl}methyl)-2-pyrrolidinyl](m-fluorophenyl)methanol], the Emax at 10 µM (L6-myotubes [1]; [5]) is reported as < 25% and the Emax at 10 µM (L6-myotubes [2]; [6]) is reported as < 25%.

In the case of `CC(C)(C[C@H]1CC[C@H](NS(C)(=O)=O)CC1)NC[C@H](O)c1cccc(C#N)n1` [Compound 426, 6-[(S)-2-{1,1-dimethyl-2-[(1r,4S)-4-(mesylamino)cyclohexyl]ethylamino}-1-hydroxyethyl]-2-pyridinecarbonitrile], the Emax at 10 µM (L6-myotubes [1]; [5]) is reported as > 75% and the Emax at 10 µM (L6-myotubes [2]; [6]) is reported as < 25%.

`CO[C@H]1CC[C@H](C[C@]2(C)CC[C@H]([C@@H](O)c3cccc(F)c3)N2)CC1` [Compound 363, (S)-[(2R,5S)-5-methyl-5-{[(1r,4S)-4-methoxycyclohexyl]methyl}-2-pyrrolidinyl](m-fluorophenyl)methanol] was tested, and the Emax at 10 µM (L6-myotubes [1]; [5]) was > 75% and the Emax at 10 µM (L6-myotubes [2]; [6]) was < 25%.

`CC(C)(C[C@H]1CC[C@H](C(=O)O)CC1)NC[C@H](O)c1cccc(F)c1` [Compound 355, (1R,4r)-4-{2-[(R)-2-(m-fluorophenyl)-2-hydroxyethylamino]-2-methylpropyl} cyclohexanecarboxylic acid] was tested, and the Emax at 10 µM (L6-myotubes [1]; [5]) was 50 to 75% and the Emax at 10 µM (L6-myotubes [2]; [6]) was < 25%.

`CC1(C)CC[C@H]([C@H](O)c2cccc(Cl)c2)N1` [Compound 154, (R)-[(R)-5,5-dimethyl-2-pyrrolidinyl](m-chlorophenyl)methanol] was tested, and the Emax at 10 µM (L6-myotubes [1]; [3]) was > 75% and the Emax at 10 µM (L6-myotubes [2]; [4]) was < 25%.

With `CC(=O)N[C@H]1CC[C@H](CNC[C@H](O)c2cncc(F)c2)CC1` [Compound 309] the Emax at 10 µM (L6-myotubes [1]; [5]) was 50 to 75% and the Emax at 10 µM (L6-myotubes [2]; [6]) was < 25%.

In the case of `CC12CC(C1)[C@@H]([C@@H](O)c1cccc(Cl)c1)N2` [Compound 207], the Emax at 10 µM (L6-myotubes [1]; [5]) is reported as 25 to 50% and the Emax at 10 µM (L6-myotubes [2]; [6]) is reported as < 25%.

For `C[C@H]1CC[C@@H]([C@@H](O)c2cccc(O)c2)N1` (racemic) [Compound 41, Racemic mixture of m-{(R)-[(2R,5R)-5-methyl-2-pyrrolidinyl] hydroxymethyl}phenol and m-{(S)-[(2S,5S)-5-methyl-2-pyrrolidinyl] hydroxymethyl}phenol], the Emax at 10 µM (L6-myotubes [1]; [3]) was > 75% and the Emax at 10 µM (L6-myotubes [2]; [4]) was < 25%.

In the case of `CC12CC(C1)[C@@H]([C@@H](O)c1cccc(F)c1)N2` [Compound 189], the Emax at 10 µM (L6-myotubes [1]; [3]) is reported as 50 to 75% and the Emax at 10 µM (L6-myotubes [2]; [4]) is reported as < 25%.

`CC(C)(C)NC[C@H](O)c1cccc(N)c1F` [Compound 91, (R)-1-(3-amino-2-fluorophenyl)-2-(tert-butylamino)-1-ethanol] was tested, and the Emax at 10 µM (L6-myotubes [1]; [3]) was > 75% and the Emax at 10 µM (L6-myotubes [2]; [4]) was 25 to 50%.

With `CCC[C@@H](C)NC[C@H](O)c1cccc(F)c1` [Compound 50, (R)-2-[(R)-1-methylbutylamino]-1-(m-fluorophenyl)-1-ethanol] the Emax at 10 µM (L6-myotubes [1]; [3]) was > 75% and the Emax at 10 µM (L6-myotubes [2]; [4]) was < 25%.

With `CCCCNCC(O)c1cc(F)cc(F)c1` (stereo not shown) [Compound 55, 2-(butylamino)-1-(3,5-difluorophenyl)-1-ethanol] the Emax at 10 µM (L6-myotubes [1]; [3]) was 50 to 75% and the Emax at 10 µM (L6-myotubes [2]; [4]) was < 25%.

`CS(=O)(=O)N(Cc1ccccc1)c1cccc(CC23CCC([C@@H](O)c4cccc(F)c4)(CC2)N3)c1` [Compound 512] was tested, and the Emax at 10 µM (L6-myotubes [1]; [5]) was < 25% and the Emax at 10 µM (L6-myotubes [2]; [6]) was < 25%.

For `CCCCNCC(O)c1ccc(F)c(NC(C)=O)c1F` (stereo not shown) [Compound 42, N-{3-[2-(butylamino)-1-hydroxyethyl]-2,6-difluorophenyl}acetamide], the Emax at 10 µM (L6-myotubes [1]; [3]) was 25 to 50% and the Emax at 10 µM (L6-myotubes [2]; [4]) was < 25%.

For `CS(=O)(=O)Nc1cccc(CC23CCC([C@@H](O)c4cccc(F)c4)(CC2)N3)c1` [Compound 514, (S)-(m-fluorophenyl)(4-{[m-(mesylamino)phenyl]methyl}-7-azabicyclo[[2.2.1]]hept-1-yl)methanol], the Emax at 10 µM (L6-myotubes [1]; [5]) was 50 to 75% and the Emax at 10 µM (L6-myotubes [2]; [6]) was < 25%.

In the case of `O[C@@H](c1cncc(F)c1)C12CCC(C/C=C/c3ccccc3)(CC1)N2` [Compound 529, (S)-{4-[(E)-3-phenyl-2-propenyl]-7-azabicyclo[[2.2.1]]hept-1-yl}(5-fluoro-3-pyridyl)methanol], the Emax at 10 µM (L6-myotubes [1]; [5]) is reported as 25 to 50% and the Emax at 10 µM (L6-myotubes [2]; [6]) is reported as < 25%.

In the case of `CC1(C)C[C@H]([C@@H](O)c2cccc(F)c2)N1` [Compound 201], the Emax at 10 µM (L6-myotubes [1]; [5]) is reported as < 25% and the Emax at 10 µM (L6-myotubes [2]; [6]) is reported as < 25%.

For `CC1(C)C[C@H]([C@H](O)c2cccc(F)c2)N1` [Compound 198, (R)-[(R)-4,4-dimethyl-2-azetidinyl](m-fluorophenyl)methanol], the Emax at 10 µM (L6-myotubes [1]; [5]) was > 75% and the Emax at 10 µM (L6-myotubes [2]; [6]) was < 25%.

`CO[C@H]1CC[C@H](CCC23CCC([C@@H](O)c4cccc(F)c4)(CC2)N3)CC1` [Compound 410] was tested, and the “Biological example 2 (GU)” value (L6-myotubes [1]; [5]) was “++ (if it is between 75 and 50% it is denoted with ++)” and the “Biological example 3 (CAMP)” value (L6-myotubes [2]; [6]) was “− (if it less than 25% it is denoted with −)”.

In the case of `CC1(C)C[C@H]([C@H](O)c2cncc(F)c2)N1` [Compound 214], the Emax at 10 µM (L6-myotubes [1]; [5]) is reported as > 75% and the Emax at 10 µM (L6-myotubes [2]; [6]) is reported as < 25%.
